From ChEMBL document CHEMBL4689842, “EUbOPEN Chemogenomics Library wave 1” (2021)

Test system: U2OS
Test: Incucyte cell viability with U2OS; further: filed as whole numbers so only -1 and 0 and 1 occur
Format: toxicity, cell-based
Conditions: human, 10 µM, compound concentration 10 uM
[1] = 12 h, replicate number 1, timepoint 12 hours
[2] = 18 h, replicate number 1, timepoint 18 hours
[3] = 24 h, replicate number 1, timepoint 24 hours

O=C1NCN(c2ccccc2)C12CCN(CCCOc1ccc(F)cc1)CC2 [SPIRAMIDE]
Growth Rate (0 h, replicate number 1, timepoint 0 hours): 0
Growth Rate (6 h, replicate number 2, timepoint 6 hours): 1
Growth Rate [1]: 0
Growth Rate [2]: 0
Growth Rate [3]: 0

CC[C@H](C)C(=O)O[C@H]1C[C@@H](C)C=C2C=C[C@H](C)[C@H](CC[C@@H]3C[C@@H](O)CC(=O)O3)[C@H]21 [LOVASTATIN]
Growth Rate (6 h, replicate number 1, timepoint 6 hours): 0
Growth Rate [1]: 0
Growth Rate [2]: 0
Growth Rate [3]: 0
